Measured values reported in patent US8183364B2, “Substituted porphyrins” (Duke University, priority 2004, dated 2012).

What was measured:
[1] = Oxidative degradation in the presence of ascorbic acid under aerobic conditions; format: physicochemical; conditions: pH 7.8 (0.05 M tris buffer)
Summary of the method: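 Mn porphyrins exposed to ascorbic acid under aerobic conditions; percentage of porphyrin degraded within 2 hours recorded.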

[2] = Electrochemistry: cyclic voltammetry of the Mn(III)/Mn(II) redox couple; format: physicochemical; conditions: for Metal-centered redox potential E1/2: Mn(III)/Mn(II), 0.1 M NaCl, 0.05 M phosphate buffer, pH 7.8, ±3 mV
Protocol: Electrochemistry. Measurements were performed on a CH Instruments Model 600 Voltammetric Analyzer (Spasojevic and Batinic-Haberle, Inorg. Chim. Acta. 317:230-242 (2001), Batinic-Haberle et al, J. Biol. Chem. 273:24521-24528 (1998), Batinic-Haberle et al, Inorg. Chem. 38:4011-4022 (1999)). A three-electrode system in a small volume cell (0.5 mL to 3 mL), with a 3 mm-diameter glassy carbon button working electrode (Bioanalytical Systems), plus the Ag/AgCl reference and Pt auxiliary electrodes was used. Argon-purged solutions contained 0.05 M phosphate buffer, pH 7.8, 0.1 M NaCl, and 0.5 mM metalloporphyrin. The scan rates were 0.01-0.5 V/s, typically 0.1 V/s. The potentials were standardized against the potassium ferrocyanide/ferricyanide (Kolthof and Tomsicek, J. Phys. Chem. 39:945 (1935)) and/or against MnTE-2-PyP^5+ (Spasojevic and Batinic-Haberle, Inorg. Chim. Acta. 317:230-242 (2001), Batinic-Haberle et al, J. Biol. Chem. 273:24521-24528 (1998), Batinic-Haberle et al, Inorg. Chem. 38:4011-4022 (1999)).
Electrochemistry. All cyclic voltammograms, ascribed to the Mn(III)/Mn(II) redox couple, are reversible. The E1/2 of di-ortho ethylimidazolylporphyrin, MnTDE-2-ImP^5+ is 118 mV more positive than of ortho ethylpyridylporphyrin, MnTE-2-PyP^5+ (+228 mV vs NHE), as a consequence of charge delocalization. A similar difference of 114 mV was seen between their methoxyethyl analogues. Mn porphyrins bearing N-pyridyl substituents of the same length, MnTnBu-PyP^5+ and MnTMOE-2-PyP^5+, have nearly identical E1/2 of +254 and +251 mV vs NHE, which is 26 and 23 mV higher than that of MnTE-PyP^5+.

[3] = Catalysis of O2.^− dismutation by pulse radiolysis; format: biochemical; conditions: for log kcat for O2^− dismutation: pulse radiolysis, pH 7.8, (22 ± 1) °C, kcat ±30%
Protocol: Catalysis of O2.^− dismutation. The catalytic rate constants for the O2.^− dismutation were determined by pulse radiolysis in 0.05 M phosphate buffer (pH 7.8) at (22±1)° C. as previously described (Batinic-Haberle et al, Inorg. Chem. 40:726 (2001)). In the present study 10 mM formate was used as a scavenger for H. atoms and .OH radicals, which leads first to production of CO2.^− radicals and then to O2.^− radicals. This system is known to lead to conversion of all primary radicals of water radiolysis into O2.^−.
Catalysis of O2.^− dismutation. Pulse radiolysis was used to assess the SOD-like activities of the Mn porphyrins studied. The initial concentration of O2.^− produced by the pulse was about 27 μM, and the concentration of the Mn porphyrin was between 0.5 and 5 μM. The dismutation of O2.^− was followed at 280 nm. The catalytic rate constant was determined from the linear dependence of kobs upon the concentration of the catalyst (Batinic-Haberle et al, Inorg. Chem. 40:726 (2001)). All the new compounds have high O2.^− dismuting ability. The magnitude of the catalysis is due to the interplay of the electron-withdrawing effects of quaternized ortho pyridyl or di-ortho imidazolyl groups, favorable electrostatics, and the solvation of the metal site.

[4] = Thin-layer chromatography on silica gel (retention factor Rf, lipophilicity); format: physicochemical; conditions: silica gel TLC, KNO3-saturated H2O/H2O/acetonitrile = 1/1/8; for Rf (compound path/solvent path), metal-free porphyrin (in parenthesis): metal-free ligand of the named Mn porphyrin
Protocol: Uv/vis spectra of porphyrin ligands and their Mn complexes were taken on a Shimadzu UV-2501-PC spectrophotometer at 25° C. Thin-layer chromatography of ligands and Mn complexes was done using silica gel plates with KNO3satH2O/H2O/acetonitrile=1/1/8.
Thin-layer chromatography. All new methoxyporphyrins are more lipophilic than MnTE-2-PyP^5+ and MnTDE-2-ImP^5+.

Compound: COCC[n+]1ccccc1-c1c2nc(c(-c3cccc[n+]3CCOC)c3ccc([n-]3)c(-c3cccc[n+]3CCOC)c3nc(c(-c4cccc[n+]4CCOC)c4ccc1[n-]4)C=C3)C=C2.[Mn+3] [MnTMOE-2-PyP^5+, Mn(III) tetrakis 5,10,15,20-tetrakis[N-(2-methoxyethyl)pyridinium-2-yl]porphyrin]
- degradation within 2 hours [1]: 24%
- Metal-centered redox potential E1/2 [2]: +251 mV vs NHE
- E1/2 more positive / higher than that of MnTE-2-PyP^5+ ([2]; difference vs MnTE-2-PyP^5+ (+228 mV vs NHE)): 23 mV
- log kcat for O2^− dismutation [3]: 8.04
- SOD-like activity relative to MnTE-2-PyP^5+ ([3]; vs MnTE-2-PyP^5+): two-fold higher
- kcat higher than MnTnBu-2-PyP^5+ ([3]; vs MnTnBu-2-PyP^5+): 6 fold
- Rf (compound path/solvent path), metal-free porphyrin (in parenthesis) [4]: 0.18
- Rf (compound path/solvent path), Mn complex [4]: 0.16

Compound: COCCn1cc[n+](CCOC)c1-c1c2nc(c(-c3n(CCOC)cc[n+]3CCOC)c3ccc([n-]3)c(-c3n(CCOC)cc[n+]3CCOC)c3nc(c(-c4n(CCOC)cc[n+]4CCOC)c4ccc1[n-]4)C=C3)C=C2.[Mn+3] [MnTDMOE-2-ImP^5+, Mn(III) tetrakis 5,10,15,20-tetrakis[N,N′-di(2-methoxyethyl)imidazolium-2-yl]porphyrin]
- degradation within 2 hours [1]: 2%
- Metal-centered redox potential E1/2 [2]: +365 mV vs NHE
- log kcat for O2^− dismutation [3]: 7.59
- Rf (compound path/solvent path), metal-free porphyrin (in parenthesis) [4]: 0.24
- Rf (compound path/solvent path), Mn complex [4]: 0.21
